# Legend:
# [1] = molecular target: Signal peptidase I (Escherichia coli K-12) (UniProt P00803); assay: Inhibition of LepB in Escherichia coli IMP assessed as antibacterial activity by measuring reduction in bacterial growth incubated for 18 hrs by two-fold serial dilution method
# Escherichia coli [2] = assay: Antibacterial activity against Escherichia coli 25922 incubated for 18 hrs by two-fold serial dilution method; type: functional
# Escherichia coli [3] = assay: Antibacterial activity against Escherichia coli 25922 incubated for 18 hrs in presence of 50% mouse serum by two-fold serial dilution method; type: functional
# [4] = Unbound fraction in human plasma at 5 uM measured after 24 hrs by LC-MS/MS analysis; type: ADME, cell-free
# Signal peptidase I (Escherichia coli K-12), sequence (P00803 whole entry): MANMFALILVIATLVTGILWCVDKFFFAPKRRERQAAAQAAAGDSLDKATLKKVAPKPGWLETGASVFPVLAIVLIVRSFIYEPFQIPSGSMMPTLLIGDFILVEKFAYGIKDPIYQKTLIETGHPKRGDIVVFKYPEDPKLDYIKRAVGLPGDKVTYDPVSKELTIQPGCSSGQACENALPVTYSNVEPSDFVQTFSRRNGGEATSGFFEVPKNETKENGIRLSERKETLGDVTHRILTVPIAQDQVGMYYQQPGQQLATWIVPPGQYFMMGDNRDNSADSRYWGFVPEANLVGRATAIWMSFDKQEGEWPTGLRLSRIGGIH
MIC [1],MIC (Escherichia coli [2]),MIC (Escherichia coli [3]),"fraction unbound at 24 h, 5 µM [4]",Compound
0.011 µg/mL,0.22 µg/mL,0.34 µg/mL,,C[C@@H]1NC(=O)[C@@H](N(C)C(=O)[C@H](CCN)NC(=O)c2cnc(-c3ccc(C(C)(C)C)cc3)cc2N)c2ccc(OCCN)c(c2)-c2cc(ccc2OCCN)C[C@@H](C(=O)NCC#N)NC1=O
0.014 µg/mL,0.41 µg/mL,1.4 µg/mL,0.078,Cc1cc(-c2ccc(C(F)(F)F)cc2)ccc1C(=O)N[C@@H](CCN)C(=O)N(C)[C@@H]1C(=O)N[C@@H](C)C(=O)N[C@H](C(=O)NCC#N)Cc2ccc(OCCN)c(c2)-c2cc1ccc2OCCN
0.003 µg/mL,0.13 µg/mL,0.17 µg/mL,0.22,Cc1nc(-c2ccc(C(C)(C)C)cc2)nc(C)c1C(=O)N[C@@H](CCN)C(=O)N(C)[C@@H]1C(=O)N[C@@H](C)C(=O)N[C@H](C(=O)NCC#N)Cc2ccc(OCCN)c(c2)-c2cc1ccc2OCCN
0.01 µg/mL,0.83 µg/mL,2.3 µg/mL,0.13,Cc1cc(-c2ccc(Cl)cc2)ccc1C(=O)N[C@@H](CCN)C(=O)N(C)[C@@H]1C(=O)N[C@@H](C)C(=O)N[C@H](C(=O)NCC#N)Cc2ccc(OCCN)c(c2)-c2cc1ccc2OCCN
0.007 µg/mL,0.98 µg/mL,7.5 µg/mL,0.03,CCCCCCCCCCCC(=O)N[C@@H](CCN)C(=O)N(C)[C@@H]1C(=O)N[C@@H](C)C(=O)N[C@H](C(=O)NCC#N)Cc2ccc(OCCN)c(c2)-c2cc1ccc2OCCN
0.021 µg/mL,0.34 µg/mL,0.12 µg/mL,,Cc1nc(-c2ccc(C(C)(C)C)cc2)c(N)cc1C(=O)N[C@@H](CCN)C(=O)N(C)[C@@H]1C(=O)N[C@@H](C)C(=O)N[C@H](C(=O)NCC#N)Cc2ccc(OCCN)c(c2)-c2cc1ccc2OCCN
0.1 µg/mL,15 µg/mL,51 µg/mL,,CCCCCCCCCC(=O)N[C@@H](CCN)C(=O)N(C)[C@@H]1C(=O)N[C@@H](C)C(=O)N[C@H](C(=O)NCC#N)Cc2ccc(OCCN)c(c2)-c2cc1ccc2OCCN
0.016 µg/mL,0.2 µg/mL,2.1 µg/mL,,CCCCc1ccc(-c2ccc(C(=O)N[C@@H](CCN)C(=O)N(C)[C@@H]3C(=O)N[C@@H](C)C(=O)N[C@H](C(=O)NCC#N)Cc4ccc(OCCN)c(c4)-c4cc3ccc4OCCN)cc2)cc1
0.007 µg/mL,0.34 µg/mL,0.68 µg/mL,,CNc1nc(-c2ccc(C(C)(C)C)cc2)ncc1C(=O)N[C@@H](CCN)C(=O)N(C)[C@@H]1C(=O)N[C@@H](C)C(=O)N[C@H](C(=O)NCC#N)Cc2ccc(OCCN)c(c2)-c2cc1ccc2OCCN
0.006 µg/mL,0.08 µg/mL,0.83 µg/mL,0.001,Cc1cc(-c2ccc(CC(C)C)cc2)ccc1C(=O)N[C@@H](CCN)C(=O)N(C)[C@@H]1C(=O)N[C@@H](C)C(=O)N[C@H](C(=O)NCC#N)Cc2ccc(OCCN)c(c2)-c2cc1ccc2OCCN
0.008 µg/mL,0.31 µg/mL,0.75 µg/mL,0.053,CCc1ccc(-c2ccc(C(=O)N[C@@H](CCN)C(=O)N(C)[C@@H]3C(=O)N[C@@H](C)C(=O)N[C@H](C(=O)NCC#N)Cc4ccc(OCCN)c(c4)-c4cc3ccc4OCCN)c(C)c2)cc1
0.004 µg/mL,0.12 µg/mL,0.12 µg/mL,,Cc1nc(-c2ccc(C(C)(C)C)cc2)ccc1C(=O)N[C@@H](CCN)C(=O)N(C)[C@@H]1C(=O)N[C@@H](C)C(=O)N[C@H](C(=O)NCC#N)Cc2ccc(OCCN)c(c2)-c2cc1ccc2OCCN
0.023 µg/mL,3.8 µg/mL,15 µg/mL,0.09,CCCCCCCCCCC(=O)N[C@@H](CCN)C(=O)N(C)[C@@H]1C(=O)N[C@@H](C)C(=O)N[C@H](C(=O)NCC#N)Cc2ccc(OCCN)c(c2)-c2cc1ccc2OCCN
0.007 µg/mL,0.15 µg/mL,0.96 µg/mL,0.086,Cc1cc(-c2ccc(C(C)C)cc2)ccc1C(=O)N[C@@H](CCN)C(=O)N(C)[C@@H]1C(=O)N[C@@H](C)C(=O)N[C@H](C(=O)NCC#N)Cc2ccc(OCCN)c(c2)-c2cc1ccc2OCCN
0.004 µg/mL,0.18 µg/mL,0.12 µg/mL,0.083,Cc1cc(-c2ccc(C(C)(C)C)cc2)nc(C)c1C(=O)N[C@@H](CCN)C(=O)N(C)[C@@H]1C(=O)N[C@@H](C)C(=O)N[C@H](C(=O)NCC#N)Cc2ccc(OCCN)c(c2)-c2cc1ccc2OCCN
0.014 µg/mL,0.24 µg/mL,3.8 µg/mL,,CCCCCCCCCCCCCC(=O)N[C@@H](CCN)C(=O)N(C)[C@@H]1C(=O)N[C@@H](C)C(=O)N[C@H](C(=O)NCC#N)Cc2ccc(OCCN)c(c2)-c2cc1ccc2OCCN
0.004 µg/mL,0.14 µg/mL,0.2 µg/mL,0.23,Cc1nc(-c2ccc(C(C)(C)C)cc2)ncc1C(=O)N[C@@H](CCN)C(=O)N(C)[C@@H]1C(=O)N[C@@H](C)C(=O)N[C@H](C(=O)NCC#N)Cc2ccc(OCCN)c(c2)-c2cc1ccc2OCCN
0.35 µg/mL,31 µg/mL,60 µg/mL,0.59,CCCCCCCC(=O)N[C@@H](CCN)C(=O)N(C)[C@@H]1C(=O)N[C@@H](C)C(=O)N[C@H](C(=O)NCC#N)Cc2ccc(OCCN)c(c2)-c2cc1ccc2OCCN

# The remaining lines, values behind:
Compound,MIC [1],MIC (Escherichia coli [2]),MIC (Escherichia coli [3]),"fraction unbound at 24 h, 5 µM [4]"
C[C@@H]1NC(=O)[C@@H](N(C)C(=O)[C@H](CCN)NC(=O)c2ccc(-c3ccc(C(C)(C)C)cc3)nc2N)c2ccc(OCCN)c(c2)-c2cc(ccc2OCCN)C[C@@H](C(=O)NCC#N)NC1=O,0.011 µg/mL,0.45 µg/mL,0.89 µg/mL,0.063
CC(C)CCc1ccc(-c2ccc(C(=O)N[C@@H](CCN)C(=O)N(C)[C@@H]3C(=O)N[C@@H](C)C(=O)N[C@H](C(=O)NCC#N)Cc4ccc(OCCN)c(c4)-c4cc3ccc4OCCN)cc2)cc1,0.015 µg/mL,0.18 µg/mL,3.8 µg/mL,
C[C@@H]1NC(=O)[C@@H](N(C)C(=O)[C@H](CCN)NC(=O)c2ccc(-c3ccc(Cl)cc3)cc2)c2ccc(OCCN)c(c2)-c2cc(ccc2OCCN)C[C@@H](C(=O)NCC#N)NC1=O,0.022 µg/mL,1.5 µg/mL,3.8 µg/mL,0.2
CCCCCCCCC(=O)N[C@@H](CCN)C(=O)N(C)[C@@H]1C(=O)N[C@@H](C)C(=O)N[C@H](C(=O)NCC#N)Cc2ccc(OCCN)c(c2)-c2cc1ccc2OCCN,0.12 µg/mL,23 µg/mL,61 µg/mL,
Cc1nc(-c2ccc(C(C)(C)C)cc2)cc(N)c1C(=O)N[C@@H](CCN)C(=O)N(C)[C@@H]1C(=O)N[C@@H](C)C(=O)N[C@H](C(=O)NCC#N)Cc2ccc(OCCN)c(c2)-c2cc1ccc2OCCN,0.007 µg/mL,0.12 µg/mL,0.08 µg/mL,
Cc1cc(-c2ccc(C(C)(C)C)cc2)ccc1C(=O)N[C@@H](CCN)C(=O)N(C)[C@@H]1C(=O)N[C@@H](C)C(=O)N[C@H](C(=O)NCC#N)Cc2ccc(OCCN)c(c2)-c2cc1ccc2OCCN,0.011 µg/mL,0.12 µg/mL,0.44 µg/mL,0.001
Cc1cc(-c2ccc(C(C)(C)C)cc2)ncc1C(=O)N[C@@H](CCN)C(=O)N(C)[C@@H]1C(=O)N[C@@H](C)C(=O)N[C@H](C(=O)NCC#N)Cc2ccc(OCCN)c(c2)-c2cc1ccc2OCCN,0.004 µg/mL,0.12 µg/mL,0.24 µg/mL,0.11
Cc1cc(-c2ccc(-c3ccccc3)cc2)ccc1C(=O)N[C@@H](CCN)C(=O)N(C)[C@@H]1C(=O)N[C@@H](C)C(=O)N[C@H](C(=O)NCC#N)Cc2ccc(OCCN)c(c2)-c2cc1ccc2OCCN,0.043 µg/mL,0.22 µg/mL,1.5 µg/mL,0.017
Cc1cc(-c2ccccc2)ccc1C(=O)N[C@@H](CCN)C(=O)N(C)[C@@H]1C(=O)N[C@@H](C)C(=O)N[C@H](C(=O)NCC#N)Cc2ccc(OCCN)c(c2)-c2cc1ccc2OCCN,0.023 µg/mL,3 µg/mL,2 µg/mL,0.34
CCCCCCCCCCCCC(=O)N[C@@H](CCN)C(=O)N(C)[C@@H]1C(=O)N[C@@H](C)C(=O)N[C@H](C(=O)NCC#N)Cc2ccc(OCCN)c(c2)-c2cc1ccc2OCCN,0.007 µg/mL,0.23 µg/mL,3.8 µg/mL,0.01
Cc1cc(-c2ccc(C(C)(C)C)cc2)nc(N)c1C(=O)N[C@@H](CCN)C(=O)N(C)[C@@H]1C(=O)N[C@@H](C)C(=O)N[C@H](C(=O)NCC#N)Cc2ccc(OCCN)c(c2)-c2cc1ccc2OCCN,0.007 µg/mL,0.23 µg/mL,0.45 µg/mL,0.058
Cc1nc(-c2ccc(C(C)(C)C)cc2)nc(N)c1C(=O)N[C@@H](CCN)C(=O)N(C)[C@@H]1C(=O)N[C@@H](C)C(=O)N[C@H](C(=O)NCC#N)Cc2ccc(OCCN)c(c2)-c2cc1ccc2OCCN,0.005 µg/mL,0.11 µg/mL,0.11 µg/mL,0.12
Cc1cc(-c2ccc(C(C)(C)C)cc2)cc(C)c1C(=O)N[C@@H](CCN)C(=O)N(C)[C@@H]1C(=O)N[C@@H](C)C(=O)N[C@H](C(=O)NCC#N)Cc2ccc(OCCN)c(c2)-c2cc1ccc2OCCN,0.005 µg/mL,0.17 µg/mL,0.34 µg/mL,

# Reference: ChEMBL document CHEMBL5370681, “Lipid Tales: Optimizing Arylomycin Membrane Anchors” (ACS Med Chem Lett, 2023)
